Source: US6914045B2, “Glycopeptide antibiotics” (Wyeth Holdings Corporation, priority 2001, dated 2005)
In brackets after ≈: the same amount, converted by molar mass.

Assays:
Test in all cases: in vitro antibacterial evaluation, MIC by broth dilution
Format in all cases: cell-based
[1] = system: Enterococcus sp.; details: broth dilution, 18 hours at 35° C.
Method in brief: (§1)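 Following National Committee for Clinical Laboratory Standards recommendations (M7-A2), susceptibility was measured by dilution in Muller-Hinton II […]. Bacteria were seeded at 5×10^5 CFU/mL against compound concentrations from 64 down to 0.06 μg/mL.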

[2] = system: Staphylococcus sp.; details: broth dilution, 18 hours at 35° C.
Method in brief: as §1

[3] = system: Streptococcus sp.; details: broth dilution, 18 hours at 35° C.
Method in brief: as §1

[4] = system: Escherichia coli; details: 18 hours at 35° C.

## CCCCN1CC(C(O)C2NC(=O)C(C(O)C3CNC(=N)N3)NC(=O)C(Cc3ccc(OC4OC(CO)C(OC5OC6COC7(OC6C(O)C5O)C5CC6CC(C5)CC7C6)C(O)C4O)cc3)NC(=O)C(C(C)c3ccccc3)NC(=O)CNC(=O)C(CO)NC2=O)N(C2OC(CO)C(O)C(O)C2O)C1=N (stereo not drawn) [Example 224]
[1]
  MIC Enterococcus avium (GC 4558): 2 µg/mL (≈ 1.35 µM)
  MIC Enterococcus faecalis (ATCC 29212): 4 µg/mL (≈ 2.7 µM)
  MIC Enterococcus faecalis (GC 2242): 4 µg/mL (≈ 2.7 µM)
  MIC Enterococcus faecalis (GC 2691): 4 µg/mL (≈ 2.7 µM)
  MIC Enterococcus faecalis (GC 3059): 4 µg/mL (≈ 2.7 µM)
  MIC Enterococcus faecalis (GC 4552): 4 µg/mL (≈ 2.7 µM)
  MIC Enterococcus faecalis (GC 4553): 2 µg/mL (≈ 1.35 µM)
  MIC Enterococcus faecalis (GC 4554): 4 µg/mL (≈ 2.7 µM)
  MIC Enterococcus faecalis (GC 6189): 4 µg/mL (≈ 2.7 µM)
  MIC Enterococcus faecium (GC 2243): 2 µg/mL (≈ 1.35 µM)
  MIC Enterococcus faecium (GC 4556): 4 µg/mL (≈ 2.7 µM)
  MIC Enterococcus faecium (GC 4557): 0.5 µg/mL (≈ 0.337 µM)
[1]; inoculum 5×10^5 CFU/mL, strain ATCC 29212
  MIC Enterococcus faecalis (ATCC 29212): 4 µg/mL (≈ 2.7 µM)
[1]; inoculum 5×10^5 CFU/mL, strain GC 2242
  MIC Enterococcus faecalis (GC 2242): 4 µg/mL (≈ 2.7 µM)
[1]; inoculum 5×10^5 CFU/mL, strain GC 2243
  MIC Enterococcus faecium (GC 2243): 2 µg/mL (≈ 1.35 µM)
[1]; inoculum 5×10^5 CFU/mL, strain GC 2691
  MIC Enterococcus faecalis (GC 2691): 4 µg/mL (≈ 2.7 µM)
[1]; inoculum 5×10^5 CFU/mL, strain GC 3059
  MIC Enterococcus faecalis (GC 3059): 4 µg/mL (≈ 2.7 µM)
[1]; inoculum 5×10^5 CFU/mL, strain GC 4552
  MIC Enterococcus faecalis (GC 4552): 4 µg/mL (≈ 2.7 µM)
[1]; inoculum 5×10^5 CFU/mL, strain GC 4553
  MIC Enterococcus faecalis (GC 4553): 2 µg/mL (≈ 1.35 µM)
[1]; inoculum 5×10^5 CFU/mL, strain GC 4554
  MIC Enterococcus faecalis (GC 4554): 4 µg/mL (≈ 2.7 µM)
[1]; inoculum 5×10^5 CFU/mL, strain GC 4556
  MIC Enterococcus faecium (GC 4556): 4 µg/mL (≈ 2.7 µM)
[1]; inoculum 5×10^5 CFU/mL, strain GC 4557
  MIC Enterococcus faecium (GC 4557): 0.5 µg/mL (≈ 0.337 µM)
[1]; inoculum 5×10^5 CFU/mL, strain GC 4558
  MIC Enterococcus avium (GC 4558): 2 µg/mL (≈ 1.35 µM)
[1]; inoculum 5×10^5 CFU/mL, strain GC 6189
  MIC Enterococcus faecalis (GC 6189): 4 µg/mL (≈ 2.7 µM)
[2]; strain ATCC 29213
  MIC Staphylococcus aureus (ATCC 29213): 2 µg/mL (≈ 1.35 µM)
[2]; strain GC 1131
  MIC Staphylococcus aureus (GC 1131): 4 µg/mL (≈ 2.7 µM)
[2]; strain GC 3051
  MIC Staphylococcus aureus (GC 3051): 2 µg/mL (≈ 1.35 µM)
[2]; strain GC 3053
  MIC Staphylococcus aureus (GC 3053): 4 µg/mL (≈ 2.7 µM)
[2]; strain GC 4541
  MIC Staphylococcus aureus (GC 4541): 1 µg/mL (≈ 0.674 µM)
[2]; strain GC 4542
  MIC Staphylococcus aureus (GC 4542): 4 µg/mL (≈ 2.7 µM)
[2]; strain GC 4543
  MIC Staphylococcus aureus-SMITH (GC 4543): 2 µg/mL (≈ 1.35 µM)
[2]; strain GC 4544
  MIC Staphylococcus aureus (GC 4544): 4 µg/mL (≈ 2.7 µM)
[2]; strain GC 4545
  MIC Staphylococcus aureus (GC 4545): 2 µg/mL (≈ 1.35 µM)
[2]; strain GC 4546
  MIC Staphylococcus haemolyticus (GC 4546): 1 µg/mL (≈ 0.674 µM)
[2]; strain GC 4547
  MIC Coagulase Negative Staphylococcus (GC 4547): 2 µg/mL (≈ 1.35 µM)
[2]; strain GC 4548
  MIC Coagulase Negative Staphylococcus (GC 4548): 1 µg/mL (≈ 0.674 µM)
[2]; strain GC 4549
  MIC Coagulase Negative Staphylococcus (GC 4549): 1 µg/mL (≈ 0.674 µM)
[2]; strain GC 4551
  MIC Coagulase Negative Staphylococcus (GC 4551): 2 µg/mL (≈ 1.35 µM)
[3]
  MIC Streptococcus agalactiae (GC 4564): <0.12 µg/mL
  MIC Streptococcus pneumoniae (ATCC 6301): 0.25 µg/mL (≈ 0.169 µM)
  MIC Streptococcus pneumoniae (GC 1894): <0.12 µg/mL
  MIC Streptococcus pneumoniae (GC 4565): 0.25 µg/mL (≈ 0.169 µM)
  MIC Streptococcus pyogenes (GC 4563): 0.25 µg/mL (≈ 0.169 µM)
[3]; inoculum 5×10^5 CFU/mL, strain ATCC 6301
  MIC Streptococcus pneumoniae (ATCC 6301): 0.25 µg/mL (≈ 0.169 µM)
[3]; inoculum 5×10^5 CFU/mL, strain GC 1894
  MIC Streptococcus pneumoniae (GC 1894): <0.12 µg/mL
[3]; inoculum 5×10^5 CFU/mL, strain GC 4563
  MIC Streptococcus pyogenes (GC 4563): 0.25 µg/mL (≈ 0.169 µM)
[3]; inoculum 5×10^5 CFU/mL, strain GC 4564
  MIC Streptococcus agalactiae (GC 4564): <0.12 µg/mL
[3]; inoculum 5×10^5 CFU/mL, strain GC 4565
  MIC Streptococcus pneumoniae (GC 4565): 0.25 µg/mL (≈ 0.169 µM)
[4]
  MIC Escherichia coli (ATCC 25922): 128 µg/mL (≈ 86.3 µM)
  MIC Escherichia coli (GC 4559): 64 µg/mL (≈ 43.1 µM)
  MIC Escherichia coli (GC 4560): 2 µg/mL (≈ 1.35 µM)
